“And” between values parts separate entries of the source, which are not always exact repeats. Equal values may be shown once.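 96-well plates; 48 h exposure; 5 concentrations. Endpoints by linear interpolation between flanking doses. Not reached: highest tested concentration assigned. Abbreviation: GI50, concentration required for 50% inhibition of growth. Definition used: TGI = concentration required for complete inhibition of growth.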
What was measured:
Experiment in all cases: NCI-60 cell line screen, 48 h
LOX IMVI melanoma = test system: LOX IMVI melanoma
MOLT-4 leukemia = test system: MOLT-4 leukemia
KM12 colon = test system: KM12 colon
MDA-N = test system: MDA-N
SK-OV-3 ovarian = test system: SK-OV-3 ovarian
NCI-H23 lung = test system: NCI-H23 lung
MALME-3M melanoma = test system: MALME-3M melanoma
MCF7 breast = test system: MCF7 breast
HT29 colon = test system: HT29 colon
A498 renal = test system: A498 renal
KM20L2 colon = test system: KM20L2 colon
T-47D breast = test system: T-47D breast
CAKI-1 renal = test system: CAKI-1 renal
SW-620 colon = test system: SW-620 colon
SK-MEL-5 melanoma = test system: SK-MEL-5 melanoma
SF-539 CNS = test system: SF-539 CNS
HCC-2998 colon = test system: HCC-2998 colon
SK-MEL-28 melanoma = test system: SK-MEL-28 melanoma
DMS 273 small cell lung = test system: DMS 273 small cell lung
MDA-MB-435 = test system: MDA-MB-435
RPMI-8226 leukemia = test system: RPMI-8226 leukemia
OVCAR-8 ovarian = test system: OVCAR-8 ovarian
UACC-257 melanoma = test system: UACC-257 melanoma
DMS 114 small cell lung = test system: DMS 114 small cell lung
HCT-15 colon = test system: HCT-15 colon
XF 498 CNS = test system: XF 498 CNS
HS 578T breast = test system: HS 578T breast
LXFL 529 NSCLC = test system: LXFL 529 NSCLC
SF-295 CNS = test system: SF-295 CNS
HCT-116 colon = test system: HCT-116 colon
IGROV1 ovarian = test system: IGROV1 ovarian
786-0 renal = test system: 786-0 renal
NCI-H522 lung = test system: NCI-H522 lung
HOP-62 NSCLC = test system: HOP-62 NSCLC
K-562 leukemia = test system: K-562 leukemia
M14 melanoma = test system: M14 melanoma
SNB-19 CNS = test system: SNB-19 CNS
SNB-75 CNS = test system: SNB-75 CNS
OVCAR-3 ovarian = test system: OVCAR-3 ovarian
CCRF-CEM leukemia = test system: CCRF-CEM leukemia
EKVX NSCLC = test system: EKVX NSCLC
SNB-78 CNS = test system: SNB-78 CNS
NCI-H226 lung = test system: NCI-H226 lung
OVCAR-4 ovarian = test system: OVCAR-4 ovarian
PC-3 prostate = test system: PC-3 prostate
UO-31 renal = test system: UO-31 renal
UACC-62 melanoma = test system: UACC-62 melanoma
DLD-1 colon = test system: DLD-1 colon
ACHN renal = test system: ACHN renal
COLO 205 colon = test system: COLO 205 colon
SK-MEL-2 melanoma = test system: SK-MEL-2 melanoma
OVCAR-5 ovarian = test system: OVCAR-5 ovarian
NCI/ADR-RES ovarian = test system: NCI/ADR-RES ovarian
NCI-H460 lung = test system: NCI-H460 lung
SR leukemia = test system: SR leukemia
RXF 393 renal = test system: RXF 393 renal
TK-10 renal = test system: TK-10 renal
U251 CNS = test system: U251 CNS
SF-268 CNS = test system: SF-268 CNS
SN12C renal = test system: SN12C renal
M19-MEL melanoma = test system: M19-MEL melanoma
A549 NSCLC = test system: A549 NSCLC
BT-549 breast = test system: BT-549 breast
MDA-MB-231 breast = test system: MDA-MB-231 breast
HOP-92 NSCLC = test system: HOP-92 NSCLC
DU-145 prostate = test system: DU-145 prostate
HL-60(TB) leukemia = test system: HL-60(TB) leukemia

O=C1C=CC(=O)c2c1c1c(c3c2C2c4ccccc4C3c3ccccc32)C2c3ccccc3C1c1ccccc12
TGI (LOX IMVI melanoma): 2.91 µM and 3.08 µM
GI50 (MOLT-4 leukemia): 0.393 µM
TGI (MOLT-4 leukemia): > 54.5 µM
GI50 (KM12 colon): 2.49 µM
TGI (KM12 colon): 25.5 µM
TGI (MDA-N): 2.91 µM and 3.01 µM
TGI (SK-OV-3 ovarian): 28.6 µM
GI50 (NCI-H23 lung): 1.81 µM
TGI (NCI-H23 lung): 4.36 µM and 6.61 µM
TGI (MALME-3M melanoma): 3.07 µM and 3.05 µM
GI50 (MCF7 breast): 2.58 µM
TGI (MCF7 breast): 3.29 µM and 7.55 µM
GI50 (HT29 colon): 1.64 µM
TGI (HT29 colon): 4.19 µM and 4.29 µM
TGI (A498 renal): 11.1 µM
TGI (KM20L2 colon): 15.2 µM
GI50 (T-47D breast): 2 µM
TGI (T-47D breast): 3.25 µM and 3.49 µM
GI50 (CAKI-1 renal): 1.5 µM
TGI (CAKI-1 renal): 2.83 µM and 3.25 µM
GI50 (SW-620 colon): 0.588 µM
TGI (SW-620 colon): 4.82 µM and 2.16 µM
GI50 (SK-MEL-5 melanoma): 1.52 µM
TGI (SK-MEL-5 melanoma): 3.11 µM and 6.21 µM
TGI (SF-539 CNS): 11.5 µM
GI50 (HCC-2998 colon): 4.91 µM
TGI (HCC-2998 colon): 17.4 µM
TGI (SK-MEL-28 melanoma): 2.83 µM
TGI (DMS 273 small cell lung): 4.08 µM
TGI (MDA-MB-435): 3.34 µM and 3.35 µM
GI50 (RPMI-8226 leukemia): 0.479 µM
TGI (RPMI-8226 leukemia): > 22.1 µM
GI50 (OVCAR-8 ovarian): 2.78 µM
TGI (OVCAR-8 ovarian): 2.94 µM
TGI (UACC-257 melanoma): 3.58 µM
TGI (DMS 114 small cell lung): 4.41 µM
GI50 (HCT-15 colon): 1.22 µM
TGI (HCT-15 colon): 2.77 µM and 2.95 µM
TGI (XF 498 CNS): 3.34 µM
GI50 (HS 578T breast): 2.38 µM
TGI (HS 578T breast): 6.24 µM
TGI (LXFL 529 NSCLC): 2.27 µM
GI50 (SF-295 CNS): 3.21 µM
TGI (SF-295 CNS): 30.4 µM
TGI (HCT-116 colon): 2.85 µM and 2.91 µM
GI50 (IGROV1 ovarian): 2.08 µM
TGI (IGROV1 ovarian): 4.58 µM and 14.7 µM
TGI (786-0 renal): 2.99 µM and 2.88 µM
GI50 (NCI-H522 lung): 0.254 µM
TGI (NCI-H522 lung): 0.775 µM and 1.42 µM
GI50 (HOP-62 NSCLC): 6.47 µM
TGI (HOP-62 NSCLC): 35.1 µM
GI50 (K-562 leukemia): 0.552 µM
TGI (K-562 leukemia): 3.94 µM and 10.7 µM
TGI (M14 melanoma): 3.29 µM and 3.12 µM
GI50 (SNB-19 CNS): 3.62 µM
TGI (SNB-19 CNS): 34.4 µM
TGI (SNB-75 CNS): 24.4 µM
TGI (OVCAR-3 ovarian): 3.3 µM
GI50 (CCRF-CEM leukemia): 0.451 µM
TGI (CCRF-CEM leukemia): 2.93 µM
GI50 (EKVX NSCLC): 6.11 µM
TGI (EKVX NSCLC): 8.53 µM
TGI (SNB-78 CNS): 3.57 µM
GI50 (NCI-H226 lung): 1.57 µM
TGI (NCI-H226 lung): 3.02 µM and 11.1 µM
TGI (OVCAR-4 ovarian): 3.92 µM
GI50 (PC-3 prostate): 9.64 µM
TGI (PC-3 prostate): 3.37 µM and 21.6 µM
GI50 (UO-31 renal): 1.62 µM
TGI (UO-31 renal): 3.09 µM and 4.32 µM
GI50 (UACC-62 melanoma): 1.74 µM
TGI (UACC-62 melanoma): 4.37 µM and 4.7 µM
TGI (DLD-1 colon): 2.3 µM
GI50 (ACHN renal): 1.96 µM
TGI (ACHN renal): 3.43 µM and 3.16 µM
GI50 (COLO 205 colon): 1.67 µM
TGI (COLO 205 colon): 3.66 µM and 2.86 µM
TGI (SK-MEL-2 melanoma): 4.25 µM
TGI (OVCAR-5 ovarian): 16.3 µM
GI50 (NCI/ADR-RES ovarian): 2.64 µM
TGI (NCI/ADR-RES ovarian): 6.2 µM
GI50 (NCI-H460 lung): 3.85 µM
TGI (NCI-H460 lung): 26.8 µM
GI50 (SR leukemia): 0.386 µM
TGI (SR leukemia): > 43.4 µM
GI50 (RXF 393 renal): 2.33 µM
TGI (RXF 393 renal): 3.86 µM and 3 µM
TGI (TK-10 renal): 3.31 µM and 3.4 µM
GI50 (U251 CNS): 4.05 µM
TGI (U251 CNS): 20.5 µM
TGI (SF-268 CNS): 16.5 µM
GI50 (SN12C renal): 1.43 µM
TGI (SN12C renal): 3 µM and 7.45 µM
TGI (M19-MEL melanoma): 3.6 µM
GI50 (A549 NSCLC): 3.08 µM
TGI (A549 NSCLC): 21.9 µM
TGI (BT-549 breast): 13.7 µM
GI50 (MDA-MB-231 breast): 2.02 µM
TGI (MDA-MB-231 breast): 4.09 µM
GI50 (HOP-92 NSCLC): 1.65 µM
TGI (HOP-92 NSCLC): 3.08 µM and 2.47 µM
TGI (DU-145 prostate): 28.4 µM
GI50 (HL-60(TB) leukemia): 0.657 µM
TGI (HL-60(TB) leukemia): 4.1 µM and 4.85 µM
